Measured values published in patent publication US12528802B2, “Heterocyclic compound” (Takeda Pharmaceutical Company Limited, priority 2019, dated 2026).

Target: T1, glucosylceramide synthase (Homo sapiens, UniProt Q16739)
T1 construct: made in house; host or cells: Expi293F cells (transient expression, pcDNA3.3-TOPO vector); microsome fraction used as enzyme source
T1 sequence (Q16739 1-394): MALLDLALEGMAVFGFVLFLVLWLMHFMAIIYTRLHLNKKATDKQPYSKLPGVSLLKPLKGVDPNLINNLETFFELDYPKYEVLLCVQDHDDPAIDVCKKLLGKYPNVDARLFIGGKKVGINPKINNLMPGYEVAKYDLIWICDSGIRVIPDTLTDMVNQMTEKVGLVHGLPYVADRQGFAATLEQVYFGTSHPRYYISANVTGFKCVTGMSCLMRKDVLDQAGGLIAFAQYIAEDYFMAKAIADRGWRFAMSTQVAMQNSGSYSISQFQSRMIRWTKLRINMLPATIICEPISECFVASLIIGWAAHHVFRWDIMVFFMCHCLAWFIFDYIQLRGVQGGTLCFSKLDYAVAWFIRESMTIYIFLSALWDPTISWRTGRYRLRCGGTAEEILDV
Experiment: Glucosylceramide synthase (GCS) enzyme assay, microsome fraction, C8 glucosylceramide quantified by Rapidfire MS/MS
Format: biochemical
Conditions: test compound 10 μM; 1.7 μM UDP-glucose, 3 μM C8 ceramide; room temperature 60 min; read-out: GCS enzyme inhibitory rate at 10 μM (%) (% of control)
In short: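 Test compound, 10 μM final, was run against human GCS from transfected Expi293F microsome fractions, using substrate solution of 6 μM C8 ceramide (in DOPC liposomes) plus 3.4 μM UDP-glucose, pH 7.5 Tris buffer, 60 min, room temperature. Product C8 glucosylceramide measured by Rapidfire MS/MS against an internal standard, % inhibition referenced to no-enzyme and DMSO wells.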

Row | inhibition at 10 µM [%] | SMILES
1 | 100 | Cc1cc2c(c(-c3ccccc3OCC(F)(F)F)n1)CN(c1ccc(C(F)(F)CO)cc1)C2=O [Example 338, 2-[4-(1,1-difluoro-2-hydroxyethyl)phenyl]-6-methyl-4-[2-(2,2,2-trifluoroethoxy)phenyl]-2,3-dihydro-1H-pyrrolo [3,4-c]pyridin-1-one]
2 | 70 | CC(=O)N1CC(O)(c2ccc(N3Cc4c(ccnc4-c4ccccc4OCC(F)(F)F)C3=O)cc2)C1 [Example 258, 2-[4-(1-acetyl-3-hydroxyazetidin-3-yl)phenyl]-4-[2-(2,2,2-trifluoroethoxy)phenyl]-2,3-dihydro-1H-pyrrolo[3,4-c]pyridin-1-one]
3 | 99 | CC(O)c1ccc(N2Cc3c(ccnc3-c3ccccc3OCC(F)(F)F)C2=O)cc1 (racemic) [Example 280, rac-2-[4-(1-hydroxyethyl)phenyl]-4-[2-(2,2,2-trifluoroethoxy)phenyl]-2,3-dihydro-1H-pyrrolo [3,4-c]pyridin-1-one]
4 | 99 | O=C1c2ccnc(-c3ccncc3OCC(F)(F)F)c2CN1c1ccc(C(O)(C(F)F)C(F)F)cc1 [Example 284, 2-[4-(1,1,3,3-tetrafluoro-2-hydroxypropan-2-yl)phenyl]-4-[3-(2,2,2-trifluoroethoxy)pyridin-4-yl]-2,3-dihydro-1H-pyrrolo[3,4-c] pyridin-1-one]
5 | 100 | Cc1cc2c(c(-c3ccc(F)cc3OCC(F)(F)F)n1)CN(c1ccc(C(C)(C)O)cc1)C2=O [Example 351, 4-[4-fluoro-2-(2,2,2-trifluoroethoxy)phenyl]-2-[4-(2-hydroxypropan-2-yl)phenyl]-6-methyl-2,3-dihydro-1H-pyrrolo[3,4-c]pyridin-1-one]
6 | 100 | CC(C)(O)c1ccc(N2Cc3c(cn(C(F)F)c(=O)c3-c3ccccc3OCC(F)(F)F)C2=O)cc1 [Example 368, 5-(difluoromethyl)-2-[4-(2-hydroxypropan-2-yl)phenyl]-7-[2-(2,2,2-trifluoroethoxy)phenyl]-1H-pyrrolo[3,4-c]pyridine-3,6(2H,5H)-dione]
7 | 99 | N#CC1(c2ccc(N3Cc4c(ccnc4-c4ccccc4OCC(F)F)C3=O)cc2)CC1 [Example 304, 1-(4-{4-[2-(2,2-difluoroethoxy)phenyl]-1-oxo-1,3-dihydro-2H-pyrrolo[3,4-c]pyridin-2-yl}phenyl) cyclopropane-1-carbonitrile]
8 | 100 | CC(C)(O)COc1ccc(N2Cc3c(cn(C(F)F)c(=O)c3-c3ccccc3OCC(F)(F)F)C2=O)cc1 [Example 369, 5-(difluoromethyl)-2-[4-(2-hydroxy-2-methylpropoxy)phenyl]-7-[2-(2,2,2-trifluoroethoxy)phenyl]-1H-pyrrolo[3,4-c]pyridine-3,6(2H,5H)-dione]
9 | 94 | CC(C)(O)C(F)(F)c1ccc(N2Cc3c(ccnc3-c3ccncc3OCC(F)(F)F)C2=O)cc1 [Example 283, 2-[4-(1,1-difluoro-2-hydroxy-2-methylpropyl)phenyl]-4-[3-(2,2,2-trifluoroethoxy)pyridin-4-yl]-2,3-dihydro-1H-pyrrolo[3,4-c] pyridin-1-one]
10 | 99 | O=C1c2ccc(=O)n(-c3ccc(F)cc3OCC(F)(F)F)c2CN1c1ccc(OC(F)F)cn1 [Example 310, 6-[5-(difluoromethoxy)pyridin-2-yl]-1-[4-fluoro-2-(2,2,2-trifluoroethoxy)phenyl]-6,7-dihydro-1H-pyrrolo[3,4-b]pyridine-2,5-dione]

The remaining lines, values behind:

Row | SMILES | inhibition at 10 µM [%]
11 | O=C1c2ccnc(-c3ccccc3OC(F)F)c2CN1c1ccc(F)cn1 [Example 63, 4-[2-(difluoromethoxy)phenyl]-2-(5-fluoropyridin-2-yl)-2,3-dihydro-1H-pyrrolo[3,4-c]pyridin-1-one] | 96
12 | COc1ccccc1-c1nccc2c1CN(c1ccc(OC(F)F)cc1)C2=O [Example 25, 2-[4-(difluoromethoxy)phenyl]-4-(2-methoxyphenyl)-2,3-dihydro-1H-pyrrolo[3,4-c]pyridin-1-one] | 99
13 | O=C1c2ccnc(-c3ccc(F)cc3OCC(F)(F)F)c2CN1c1ccc(OC(F)F)nn1 [Example 90, 2-[6-(difluoromethoxy)pyridazin-3-yl]-4-[4-fluoro-2-(2,2,2-trifluoroethoxy)phenyl]-2,3-dihydro-1H-pyrrolo[3,4-c]pyridin-1-one] | 85
14 | CC(C)(O)COc1ccc(N2Cc3c(ccnc3-c3ccc(F)cc3OCC(F)(F)F)C2=O)nc1 [Example 255, 4-[4-fluoro-2-(2,2,2-trifluoroethoxy)phenyl]-2-[5-(2-hydroxy-2-methylpropoxy)pyridin-2-yl]-2,3-dihydro-1H-pyrrolo[3,4-c]pyridin-1-one] | 100
15 | O=C1c2ccnc(-c3ccc(F)cc3OCC(F)(F)F)c2CN1c1cnn(C2CC2)c1 [Example 94, 2-(1-cyclopropyl-1H-pyrazol-4-yl)-4-[4-fluoro-2-(2,2,2-trifluoroethoxy)phenyl]-2,3-dihydro-1H-pyrrolo[3,4-c]pyridin-1-one] | 97
16 | N#Cc1ccc(N2Cc3cnn(-c4ccccc4OCC(F)(F)F)c3C2)nc1 [Example 216, 6-{1-[2-(2,2,2-trifluoroethoxy)phenyl]-4,6-dihydropyrrolo[3,4-c]pyrazol-5(1H)-yl}pyridine-3-carbonitrile] | 98
17 | O=C1c2ccnc(-c3ccc(F)cc3OCC(F)(F)F)c2CN1c1ccc(C(O)C(F)F)cc1 (racemic) [Example 250, rac-2-[4-(2,2-difluoro-1-hydroxyethyl)phenyl]-4-[4-fluoro-2-(2,2,2-trifluoroethoxy)phenyl]-2,3-dihydro-1H-pyrrolo[3,4-c]pyridin-1-one] | 99
18 | N#CC1(c2ccc(N3Cc4c(ccnc4-c4ccc(F)cc4OCC(F)(F)F)C3=O)cc2)CC1 [Example 244, 1-(4-{4-[4-fluoro-2-(2,2,2-trifluoroethoxy)phenyl]-1-oxo-1,3-dihydro-2H-pyrrolo[3,4-c]pyridin-2-yl}phenyl)cyclopropane-1-carbonitrile] | 89
19 | O=C1c2ccnc(-c3ccccc3OCC(F)(F)F)c2CN1c1ccc(O[C@@H]2CCOC2)cc1 [Example 187, 2-(4-{[(3R)-oxolan-3-yl]oxy}phenyl)-4-[2-(2,2,2-trifluoroethoxy)phenyl]-2,3-dihydro-1H-pyrrolo[3,4-c]pyridin-1-one] | 100
20 | CS(=O)(=O)c1ccc(N2Cc3c(ccnc3-c3ccccc3OCC(F)(F)F)C2=O)cc1 [Example 161, 2-[4-(methanesulfonyl)phenyl]-4-[2-(2,2,2-trifluoroethoxy)phenyl]-2,3-dihydro-1H-pyrrolo[3,4-c]pyridin-1-one] | 98
21 | Cc1nn(-c2ccc(F)cc2OCC(F)(F)F)c2c1C(=O)N(c1ccc(F)cc1)C2 [Example 92, 5-(4-fluorophenyl)-1-[4-fluoro-2-(2,2,2-trifluoroethoxy)phenyl]-3-methyl-5,6-dihydropyrrolo[3,4-c]pyrazol-4(1H)-one] | 57
22 | CN(C)C(=O)c1ccc(N2Cc3ccnc(-c4ccc(F)cc4OCC(F)(F)F)c3C2)cc1 [Example 141, 4-{4-[4-fluoro-2-(2,2,2-trifluoroethoxy)phenyl]-1,3-dihydro-2H-pyrrolo[3,4-c]pyridin-2-yl}-N,N-dimethylbenzamide] | 90
23 | CS(=O)(=O)c1ccc(N2Cc3c(ccnc3-c3ccc(F)cc3OCC(F)(F)F)C2=O)nc1 [Example 108, 4-[4-fluoro-2-(2,2,2-trifluoroethoxy)phenyl]-2-[5-(methanesulfonyl)pyridin-2-yl]-2,3-dihydro-1H-pyrrolo[3,4-c]pyridin-1-one] | 64
24 | NC(=O)c1ccc(-c2nccc3c2CN(c2ccc(F)cc2)C3=O)c(OC(F)F)c1 [Example 40, 3-(difluoromethoxy)-4-[2-(4-fluorophenyl)-1-oxo-2,3-dihydro-1H-pyrrolo[3,4-c]pyridin-4-yl]benzamide] | 54
25 | CC(C)(O)c1ccc(N2Cc3c(ccnc3-c3ccccc3OCC(F)(F)F)C2=O)cn1 [Example 184, 2-[6-(2-hydroxypropan-2-yl)pyridin-3-yl]-4-[2-(2,2,2-trifluoroethoxy)phenyl]-2,3-dihydro-1H-pyrrolo[3,4-c]pyridin-1-one] | 96
26 | O=C1c2ccnc(-c3ccc(F)cc3OCC(F)(F)F)c2CN1c1cnn(CC2(F)CC2)c1 [Example 213, 2-{1-[(1-fluorocyclopropyl)methyl]-1H-pyrazol-4-yl}-4-[4-fluoro-2-(2,2,2-trifluoroethoxy)phenyl]-2,3-dihydro-1H-pyrrolo[3,4-c]pyridin-1-one] | 94
27 | CN(C)C(=O)c1ccc(N2Cc3cnn(-c4ccc(F)cc4OCC(F)(F)F)c3C2)nc1 [Example 231, 6-{1-[4-fluoro-2-(2,2,2-trifluoroethoxy)phenyl]-4,6-dihydropyrrolo[3,4-c]pyrazol-5(1H)-yl}-N,N-dimethylpyridine-3-carboxamide] | 61
28 | O=C1C2=C(CN1c1ccc(F)cc1)C(c1ccc(F)cc1OCC(F)(F)F)=NCCN2 [Example 145, 7-(4-fluorophenyl)-5-[4-fluoro-2-(2,2,2-trifluoroethoxy)phenyl]-2,3,6,7-tetrahydropyrrolo[3,4-e][1,4]diazepin-8(1H)-one] | 63
